{
  "source": "patent US20240050409A1",
  "about": "“Methods and Compositions for Treating Psychotic Disorders” (SOUND PHARMACEUTICALS INCORPORATED, priority 2014, published 2024)",
  "key": {"NVHL rats": {"tested_on": "NVHL rats", "assay": "Prepulse inhibition of the acoustic startle response (PPI) in NVHL rats", "format": "in vivo, Sprague-Dawley rats", "conditions": "adult NVHL rats", "method": "To assess whether juvenile oxidative stress leads to behavioral deficits, a behavioral paradigm was used for testing in both animal models and schizophrenia patients. Prepulse inhibition of the acoustic startle response (PPI) is a measure of sensorimotor gating that is reduced in patients (Geyer and Braff, 1987) and NVHL rats (Lipska et al., 1995). PPI was tested in adult sham (n=11), NAC-treated sham (n=12), NVHL (n=9), and NAC-treated NVHL rats (n=17). In addition to loss of PVI maturation and electrophysiological anomalies, developmental oxidative stress in juvenile NVHL rats can cause schizophrenia-relevant adult behavioral deficits.\nThe beneficial effect of NAC treatment includes a large postnatal treatment that starts prior to the lesion and stops once rats become young adults. For full translational value one determines whether NAC is efficacious when started at an age that corresponds to the time when prodromal stages can be identified in humans. In another set of rats, NAC was administered in the drinking water starting at P35, an age that in rats is equivalent to early adolescence. For PPI deficits was tested in adult SHAM (n=15), untreated NVHL (n=12), and NAC-treated NVHL rats (n=14).\nEbselen is a glutathione peroxidase (GPx) mimic (Muller et al., 1984) that induces GPx expression (Kil et al., 2007) and enhances GSH levels in neurons, replenishing GSH depleted by neurotoxic mechanisms (Pawlas and Malecki, 2007). PPI was tested in adult vehicle-treated SHAM (n=10), Ebselen-treated SHAM (n=7), vehicle-treated NVHL (n=8), and Ebselen-treated NVHL rats (n=9), and Ebselen treatment during adolescence reversed PPI deficits in NVHL rats (as shown in FIG. 15D).\nIn another group of rats, the effects of the NADPH oxidase inhibitor Apocynin was assessed while delivering through juvenile and adolescent stages. PPI was tested in adult vehicle-treated SHAM (n=10), apocynin-treated SHAM (n=11), vehicle treated NHVL (n=7), and apocynin-treated NVHL (n=5). As illustrated in FIG. 15C a reversal of PPI deficits was observed.\nAntioxidant pretreatment regimen: NAC (BioAdvantexPharma, Mississauga, Ontario, Canada) was administered in the drinking water at 900 mg/l. NAC treatment started at P5 or at P35, and previous work in mice has shown that NAC consumed by the dam is transmitted to the pups through her milk (das Neves Duarte et al., 2012). NAC treatment ended at P50. Fresh solutions were prepared every 2-3 days. Ebselen (Sound Pharmaceuticals Inc., Seattle, WA) was administered i.p. 5 days a week starting at P35 until the day of PPI testing (P60). Stock ebselen solution (20 mg/ml DMSO, frozen aliquots) was diluted 1:5 in sterile water and administered at a dose of 10 mg/kg. Control animals received an equivalent concentration of DMSO diluted 1:5 in water. Apocynin (Sigma-Aldrich, St. Louis, MO) was administered in the drinking water at a target dose of 100 mg/kg (Nwokocha et al., 2013). Prior to weaning at P21, drinking water contained a dose of 2 g apocynin per 0.5 1 of water, to ensure delivery through the dam's milk. Apocynin concentration was lowered after weaning to 750 mg/1 to best approximate the target dose. Treatment lasted from P5 to P50 with fresh solutions prepared every other day.\nPrepulse inhibition: Starting at P60, both male and female rats were tested for PPI, as described previously (Feleder et al., 2010). As PPI deficits in NVHL rats are most evident when rats are challenged with apomorphine (Lipska et al., 1995), we injected apomorphine (0.1 mg/kg, i.p.) immediately prior to the PPI test session. Rats were placed in a sound- attenuated startle chamber (San Diego Instruments, San Diego, CA) with a 70 dB background white noise. After a 5 min adaptation period, the PPI test was initiated with pseudorandom trials every 15 to 25 seconds. Either pulse (120 dB), prepulse (75 dB, 80 dB, or 85 dB), no pulse or prepulse +pulse were delivered. […]"}, "[1]": {"assay": "Repeat dosing 28-day study, monkey", "conditions": "cynomolgus monkey, in vivo, Cynomolgus monkeys, read-out: no-observable-effect-level (NOAEL)", "method": "(§1) Seven acute and repeated dose toxicology studies were conducted in Sprague-Dawley rats, Sinclair miniature swine, and Cynomolgus monkey, and three genotoxicology studies."}, "[2]": {"assay": "Repeat dosing 28-day study, mini-pig", "design": "species or system Sinclair miniature swine", "conditions": "Sinclair, minipig, in vivo, read-out: no-observable-effect-level (NOAEL)", "method": "as §1"}, "[3]": {"conditions": "in vivo; cited from earlier work"}, "[4]": {"assay": "Ph-1 placebo-controlled, randomized, single ascending dose study: pharmacokinetics", "format": "in vivo", "conditions": "humans, single dose 200 mg to 1600 mg", "method": "(§2) Ebselen has excellent oral availability (Fisher et al., 1988). Brain level was about 20% of the plasma level (Imai, et al., 2001, Ullrich, et al., 1996). […] A Ph-1 study was conducted in 32 humans in a placebo-controlled, randomized, single ascending dose design. Ebselen ranged from 200 mg to 1600 mg in the formulation. (1) Pharmacokinetics: The PK parameters of ebselen and its three metabolites were published (Lynch, et al., 2009). […] The tabulated side effects were published in Lynch, et al., 2009."}, "rats [5]": {"tested_on": "rats", "assay": "Chronic toxicity studies 26 and 52 weeks, rats", "format": "in vivo", "method": "as §1"}, "[6]": {"tested_on": "N-methyl-D-asparatate receptors redox modulatory site", "conditions": "cited from earlier work"}, "mini-pigs": {"tested_on": "mini-pigs", "assay": "Chronic toxicity studies 26 and 52 weeks, mini-pigs", "format": "in vivo", "method": "as §1"}, "rats [7]": {"tested_on": "rats", "assay": "Repeat dosing 28-day study, rats", "format": "in vivo, Sprague-Dawley rats", "method": "as §1"}, "neurons": {"tested_on": "neurons", "conditions": "cited from earlier work"}, "[8]": {"assay": "Solubility of ebselen in aqueous solutions", "format": "physicochemical", "conditions": "25° Celsius", "method": "Ebselen is the only active ingredient administered in a formulation. […] Ebselen acts as a catalyst and is not consumed during detoxification reactions (Muller et. al, 1988). An embodiment of an ebselen formulation is >99% pure as confirmed by HPLC. The synthesis of this formulation is provided by Rhodia Pharma Solutions and includes capsules that are hermetically sealed in blister packs. Each capsule contains 200 mg the ebselen formulation or SPI-1000 (placebo)."}, "[9]": {"conditions": "in vivo; cited from earlier work", "remark": "listed apart in the source"}, "[10]": {"tested_on": "healthy males and females", "assay": "Ph-1 placebo-controlled, randomized, single ascending dose study: safety", "format": "in vivo, humans", "method": "as §2"}, "[11]": {"conditions": "32 humans, single dose 200 mg to 1600 mg"}},
  "note": "“Also recorded” adds a separate entry of the source. Like-named read-outs stand apart in the source and are kept apart here.",
  "data": [
    {"smiles": "COc1cc(C(C)=O)ccc1O", "note": "[Apocynin]", "values": [
      {"measurement": "effect on PPI deficit", "setting": "NVHL rats; drinking water, target dose 100 mg/kg, P5 to P50, 100 mg/kg", "value": "prevented; also recorded: reversal"},
      {"measurement": "effect on PPI deficit", "setting": "NVHL rats; drinking water, target dose 100 mg/kg, P5 to P50, listed as apocynin, 100 mg/kg", "value": "significant lesion by treatment interaction"}
    ]},
    {"smiles": "O=c1c2ccccc2[se]n1-c1ccccc1", "note": "[Ebselen, 2-Phenyl-1,2-benzisoselenazol-3(2H)-one]", "values": [
      {"measurement": "NOAEL at 28 days", "setting": "[1]", "value": 2000, "unit": "mg/kg"},
      {"measurement": "NOAEL at 28 days", "setting": "[2]", "value": "> 2000", "unit": "mg/kg"},
      {"measurement": "effect on PPI deficit", "setting": "NVHL rats; 10 mg/kg i.p. 5 days a week from P35 until PPI testing, 10 mg/kg", "value": "reversed; also recorded: significant lesion status by treatment interaction"},
      {"measurement": "effect on PPI deficit", "setting": "NVHL rats; 10 mg/kg i.p. 5 days a week from P35 until PPI testing, listed as ebselen, 10 mg/kg", "value": "prevented"},
      {"measurement": "brain level as share of the plasma level", "setting": "[3]", "value": "about 20%"},
      {"measurement": "Cmax", "setting": "[4]; both sexes, human, in vivo, oral, range of means", "value": "30.3 to 83.4", "unit": "ng/mL"},
      {"measurement": "AUC(0-t)", "setting": "[4]; both sexes, human, in vivo, oral, range of means, read-out: mean AUC0-t", "value": "117 to 881", "unit": "ng·h/mL"},
      {"measurement": "half-life", "setting": "[4]; both sexes, human, in vivo, oral, range of means, read-out: mean t1/2", "value": "384 to 1000", "unit": "min"},
      {"measurement": "Tmax", "setting": "[4]; both sexes, human, in vivo, oral, range of medians, read-out: median Tmax", "value": "1.5 to 2.3", "unit": "h"},
      {"measurement": "predominate metabolite", "setting": "[4]", "value": "2-glucuronyl selenobenzanilide"},
      {"measurement": "non-toxic effect level", "setting": "rats [5]", "value": 31.6, "unit": "mg/kg"},
      {"measurement": "effect on NMDA receptor redox modulatory site", "setting": "[6]", "value": "modulates"},
      {"measurement": "neuron viability", "setting": "[6]", "value": "increases"},
      {"measurement": "non-toxic effect level", "setting": "mini-pigs", "value": 178, "unit": "mg/kg"},
      {"measurement": "no-observable-effect-level (NOAEL)", "setting": "rats [7]", "value": "not identified"},
      {"measurement": "GSH levels in neurons (basal and stressed conditions)", "setting": "neurons", "value": "increased"},
      {"measurement": "glutamate-induced GSH depletion", "setting": "neurons; combined with glutamate", "value": "neutralized; also recorded: Neuroprotective effect"},
      {"measurement": "GSH levels in neurons (basal and stressed conditions)", "setting": "neurons; listed as ebselen", "value": "dose-dependently increases; also recorded: dose-dependent rise"},
      {"measurement": "solubility in aqueous solutions", "setting": "[8]", "value": "slightly soluble"},
      {"measurement": "oral availability", "setting": "[9]", "value": "excellent"},
      {"measurement": "serious adverse events or discontinuation due to an AE", "setting": "[10]; [11]", "value": "no serious adverse events"},
      {"measurement": "severity of AEs", "setting": "[10]; [11]", "value": "mild or moderate"},
      {"measurement": "trends in clinical laboratory and ECG findings", "setting": "[10]; [11]", "value": "No treatment- or dose-related trends"},
      {"measurement": "safety and tolerability", "setting": "[10]; capsules, single oral dose up to 1600 mg", "value": "safe and well tolerated"}
    ]}
  ]
}
